System: transcription regulatory region for a human-derived Type I collagen α2 chain gene
Assay: TGF-β-promoted transcription of a Type I collagen gene, COL-Luc luciferase reporter assay
Format: cell-based
Settings: normal human fetal skin fibroblast transfected with COL-Luc, TGF-β added, 40 hours, read-out: Inhibition percentage of the ability of TGF-β to promote transcription of a Type I collagen gene; for inhibition at 10 µM: compound final concentration 10 μM; for inhibition at 3 µM: compound final concentration 3 μM; for inhibition at 1 µM: compound final concentration 1 μM
Procedure: 1×10^8 cells of a normal human fetal skin fibroblast (Clontech, catalogue No. CC-2509) were cultured at 37° C. overnight under 5% CO2 atmosphere. After the cultured cells were washed with a sodium phosphate buffer (hereinafter, referred to as PBS) twice, 3 ml of PBS was added thereto and the cells were scraped away the wall of a vessel using a cell scraper (Nalgen, catalogue No. 179693). The scraped cells were collected by centrifugation (1,500 rpm, 4° C., 15 min), and these were suspended in 20 ml of PBS and centrifuged again. To the resulting precipitates were added 11 ml of Solution 2 and 4.8 μl of pronase of DNA Extraction Kit (Stratagene, catalogue No. 200600). After shaken at 60° C. for 1 hour, the resulting mixture was allowed to stand in ice for 10 minutes. Then, 4 ml of Solution 3 of the kit was added to the mixture. After mixed, the mixture was allowed to stand in ice for 5 minutes and then centrifuged (3,000 rpm, 4° C., 15 min) to recover a supernatant. To the recovered supernatant was added 2 μl of RNase per 1 ml of the supernatant and the mixture was allowed to stand at 37° C. for 15 minutes. To the mixture was added 2-fold volume of ethanol. After mixed, a white thread-like substance (genomic DNA) appeared and the substance was recovered. The recovered genomic DNA was washed with 70% ethanol and then air-dried. The air-dried genomic DNA was dissolved in 500 μl of 10 mM Tris-HCl, 1 mM EDTA (pH 8.0) (hereinafter, referred to as TE).
The resulting genomic DNA-dissolved solution (genomic DNA 1 μg corresponding amount) was mixed with each 1 μl of an oligonucleotide consisting of a base sequence represented by SEQ ID No.: 1 (SEQ ID No. 1: an oligonucleotide primer designed to amplify a collagen promoter DNA: ccaagctagc gaaattatct tttctttcat ag 32) and an oligonucleotide ([…]) consisting of a base sequence represented by SEQ ID No.:2 (SEQ ID No. 2: an oligonucleotide primer designed to amplify a collagen promoter DNA: ccaaaagctt gcagtcgtgg ccagtacc 28), 29 μl of distilled water, 5 μl of a buffer attached to TaKaRa LA Taq (TAKARA SHUZO Co., Ltd., catalogue No. RR002A), 5 μl of a Mg^2+ solution, 5 μl of a dNTP mixture and 0.5 μl of TaKaRa LA Taq (TAKARA SHUZO Co., Ltd., catalogue No. RR002A). After the resulting mixed solution was incubated at 94° C. for 5 minutes, the mixed solution was subjected to 30 cycles, in which one cycle consists of incubation at 94° C. for 1 minute, at 60° C. for 1 minute and then at 72° C. for 1 minute. The mixed solution was electrophoresed on a 2% agarose gel to recover about 0.5 kb of a DNA. The recovered DNA was treated with phenol/chloroform and then precipitated with ethanol to recover the DNA. The resulting DNA was dissolved in ultrapure water. To this solution were added 2.5 μl of NheI and 2.5 μl of HindIII, and then incubated at 37° C. for 3 hours. Then, the solution was electrophoresed on a 2% agarose gel to recover about 3.5 kb of a DNA. The recovered DNA was precipitated with ethanol to recover again the DNA (hereinafter, referred to as the collagen promoter DNA).
On the other hand, the vector pGL3 (Promega, catalogue No. E1751) having the nucleotide sequence encoding firefly luciferase was digested with NheI and HindIII, and then subjected to agarose gel electrophoresis as described above to recover about 5 kb of a DNA. The recovered DNA was precipitated with ethanol to recover the DNA again. To the recovered DNA were added 44 μl of distilled water, 5 μl of Buffer attached to Alkaline Phosphatase (TAKARA SHUZO, catalogue No. 2120A) and 1 μl of Alkaline Phosphatase (TAKARA SHUZO, catalogue No. 2120A). The mixed solution was incubated at 65° C. for 30 minutes. Then, the mixed solution was treated with phenol/chloroform twice, and precipitated with ethanol to recover the DNA (hereinafter referred to as the Luc vector DNA). […]

Structure (SMILES): CN(C)CCOc1cccc(C=CC(=O)c2c(O)c3cccnc3n(C)c2=O)c1 [(56a), 4-hydroxy-1-methyl-3-[3-[3-(2-dimethylaminoethoxy)phenyl]acryloyl]-1H-[1,8]naphthyridin-2-one]
- inhibition at 10 µM: ≥ 70%

Structure (SMILES): COCCNC(=O)c1cccc(C=CC(=O)c2cn(C)c3ccccc3c2=O)c1 [(24c), 3-[3-[3-[(2-methoxyethyl)aminocarbonyl]phenyl}acryloyl]-1-methyl-4(1H)-quinolinone]
- inhibition at 3 µM: ≥ 70%

Structure (SMILES): COC(=O)CNC(=O)c1cccc(C=CC(=O)C2=C(O)c3ccccc3S(=O)(=O)N2C)c1 [(13b), 4-hydroxy-3-[3-[3-[[(methoxycarbonylmethyl)amino]carbonyl]phenyl}acryloyl]-2-methyl-2H-1,2-benzothiazine-1,1-dioxide]
- inhibition at 3 µM: ≥ 70%

Structure (SMILES): COC(=O)COc1cccc(C=CC(=O)c2ccc(C)[nH]c2=O)c1 [(11c), 3-[3-[3-[(methoxycarbonyl)methoxy]phenyl]-1-oxo-2-propenyl]-6-methyl-2(1H)-pyridinone]
- inhibition at 10 µM: ≥ 70%

Structure (SMILES): Cc1ccc(C(=O)/C=C/c2cccc(OCCO)c2)c(=O)[nH]1 [(16c), 3-[3-[3-(2-hydroxyethoxy)phenyl]-1-oxo-2-propenyl]-6-methyl-2(1H)-pyridinone]
- inhibition at 10 µM: ≥ 70%

Structure (SMILES): COCC(=O)Nc1cccc(C=CC(=O)C2=C(O)c3ccccc3S(=O)(=O)N2C)c1 [(5b), 4-hydroxy-3-[3-[3-(methoxyacetylamino)phenyl]acryloyl]-2-methyl-2H-1,2-benzothiazine-1,1-dioxide]
- inhibition at 1 µM: ≥ 70%

Structure (SMILES): COCCOC(=O)Nc1cccc(C=CC(=O)c2c(O)c3cccnc3n(C)c2=O)c1 [(42a), 4-hydroxy-1-methyl-3-[3-[3-[(2-methoxyethoxy)carbonylamino]phenyl]acryloyl]-1H-[1,8]naphthyridin-2-one]
- inhibition at 3 µM: ≥ 70%

Structure (SMILES): Cn1c(=O)c(C(=O)C=Cc2cccc(OCCO)c2)c(O)c2cccnc21 [(40a), 4-hydroxy-1-methyl-3-[3-[3-(2-hydroxyethoxy)phenyl]acryloyl]-1H-[1,8]naphthyridin-2-one]
- inhibition at 3 µM: ≥ 70%

Structure (SMILES): COC(=O)COc1cccc(C=CC(=O)c2c(O)c3cccnc3n(C)c2=O)c1 [(36a), 4-hydroxy-1-methyl-3-[3-[3-[(methoxycarbonyl)methoxy]phenyl]acryloyl]-1H-[1,8]naphthyridin-2-one]
- inhibition at 3 µM: ≥ 70%

Structure (SMILES): COCCNC(=O)c1cccc(C=CC(=O)c2c(O)c3cccnc3[nH]c2=O)c1 [(31a), 4-hydroxy-3-[3-[3-[(2-methoxyethyl)aminocarbonyl]phenyl}acryloyl]-1H-[1,8]naphthyridin-2-one]
- inhibition at 3 µM: ≥ 70%

Structure (SMILES): COCC(=O)Nc1cccc(C=CC(=O)c2c(O)c3cccnc3n(C)c2=O)c1 [(19a), 4-hydroxy-1-methyl-3-[3-[3-(methoxyacetylamino)phenyl]acryloyl]-1H-[1,8]naphthyridin-2-one]
- inhibition at 3 µM: ≥ 70%

Structure (SMILES): COC(=O)CNC(=O)c1cccc(C=CC(=O)c2c(O)c3cccnc3n(C)c2=O)c1 [(29a), 4-hydroxy-1-methyl-3-[3-[3-[[(methoxycarbonylmethyl)amino]carbonyl]phenyl}acryloyl]-1H-[1,8]naphthyridin-2-one]
- inhibition at 3 µM: ≥ 70%

Structure (SMILES): COC(=O)COc1cccc(C=CC(=O)C2=C(O)c3ccccc3S(=O)(=O)N2C)c1 [(1b), 4-hydroxy-3-[3-[3-[(methoxycarbonyl)methoxy]phenyl]acryloyl]-2-methyl-2H-1,2-benzothiazine-1,1-dioxide]
- inhibition at 3 µM: ≥ 70%

Structure (SMILES): COCCNC(=O)c1cccc(C=CC(=O)c2c[nH]c3ccccc3c2=O)c1 [(23c), 3-[3-[3-[(2-methoxyethyl)aminocarbonyl]phenyl}acryloyl]-4(1H)-quinolinone]
- inhibition at 1 µM: ≥ 70%

Structure (SMILES): COCC(=O)Nc1ccc(C=CC(=O)c2c(O)c3cccnc3n(C)c2=O)cc1 [(20a), 4-hydroxy-1-methyl-3-[3-[4-(methoxyacetylamino)phenyl]acryloyl]-1H-[1,8]naphthyridin-2-one]
- inhibition at 10 µM: ≥ 70%

Structure (SMILES): COCCNC(=O)c1cccc(C=CC(=O)C2=C(O)c3ccccc3S(=O)(=O)N2C)c1 [(10b), 4-hydroxy-3-[3-[3-[(2-methoxyethyl)aminocarbonyl]phenyl}acryloyl]-2-methyl-2H-1,2-benzothiazine-1,1-dioxide]
- inhibition at 3 µM: ≥ 70%

Structure (SMILES): COCCNC(=O)c1cccc(/C=C/C(=O)c2c(O)c3cccnc3n(C)c2=O)n1 [(124a), 4-hydroxy-1-methyl-3-[3-[6-(2-methoxyethyl)aminocarbonyl-2-pyridinyl]acryloyl]-1H-[1,8]naphthyridin-2-one]
- inhibition at 10 µM: ≥ 70%

Structure (SMILES): COCCNC(=O)c1cccc(C=CC(=O)c2c(O)c3cccnc3n(C)c2=O)c1 [(32a), 4-hydroxy-1-methyl-3-[3-[3-[(2-methoxyethyl)aminocarbonyl]phenyl}acryloyl]-1H-[1,8]naphthyridin-2-one]
- inhibition at 3 µM: ≥ 70%

Structure (SMILES): CN1C(C(=O)C=Cc2cccc(OCCO)c2)=C(O)c2ccccc2S1(=O)=O [(16b), 4-hydroxy-3-[3-[3-(2-hydroxyethoxy)phenyl]acryloyl]-2-methyl-2H-1,2-benzothiazine-1,1-dioxide]
- inhibition at 1 µM: ≥ 70%

Source: patent US20090143368A1, “Use of Cinnamoyl Compound” (priority 2005, published 2009)
